Laboratory results from ChEMBL document CHEMBL3046383, “Enantioselective Herbicidal Activity of Chiral α-Methylbenzylphenylureas against Cyperaceae and Echinochloa Paddy Weeds” (Biosci Biotechnol Biochem, 1998).
Active and inactive are the calls of the source. How the calls were made is not given here.

What was measured:
Oryza sativa [1] = test: Phytotoxicity against directly seeded Oryza sativa (rice) seedlings assessed as phytotoxic activity ratings (0- no effect to 5-complete killing rating scale) at 100 g/a measured after 3 weeks post compound treatment under green house conditions; format: organism-based; details: in vivo, 504 h
Echinochloa oryzicola [2] = test: Herbicidal activity against Echinochloa oryzicola assessed as phytotoxic activity ratings (0- no effect to 5-complete killing rating scale) at 6.2 g/a measured after 3 weeks post compound treatment under green house conditions; format: functional
Oryza sativa [3] = test: Phytotoxicity against transplanted Oryza sativa (rice) seedlings assessed as phytotoxic activity ratings (0- no effect to 5-complete killing rating scale) at 100 g/a measured after 3 weeks post compound treatment under green house conditions; format: organism-based; details: in vivo, 504 h
[4] = system: Schoenoplectiella juncoides; test: Herbicidal activity against Schoenoplectiella juncoides var. Hotarui Ohwi assessed as phytotoxic activity ratings (0- no effect to 5-complete killing rating scale) at 100 g/a measured after 3 weeks post compound treatment under green house conditions; format: functional
Cyperus serotinus [5] = test: Herbicidal activity against Cyperus serotinus assessed as phytotoxic activity ratings (0- no effect to 5-complete killing rating scale) at 100 g/a measured after 3 weeks post compound treatment under green house conditions; format: functional
Cyperus difformis [6] = test: Herbicidal activity against Cyperus difformis assessed as phytotoxic activity ratings (0- no effect to 5-complete killing rating scale) at 100 g/a measured after 3 weeks post compound treatment under green house conditions; format: functional
Echinochloa oryzicola [7] = test: Herbicidal activity against Echinochloa oryzicola assessed as phytotoxic activity ratings (0- no effect to 5-complete killing rating scale) at 100 g/a measured after 3 weeks post compound treatment under green house conditions; format: functional
Cyperus difformis [8] = test: Herbicidal activity against Cyperus difformis assessed as phytotoxic activity ratings (0- no effect to 5-complete killing rating scale) at 25 g/a measured after 3 weeks post compound treatment under green house conditions; format: functional
Cyperus serotinus [9] = test: Herbicidal activity against Cyperus serotinus assessed as phytotoxic activity ratings (0- no effect to 5-complete killing rating scale) at 3.1 g/a measured after 3 weeks post compound treatment under green house conditions; format: functional
[10] = system: Schoenoplectiella juncoides; test: Herbicidal activity against Schoenoplectiella juncoides var. Hotarui Ohwi assessed as phytotoxic activity ratings (0- no effect to 5-complete killing rating scale) at 12.2 g/a measured after 3 weeks post compound treatment under green house conditions; format: functional
Cyperus difformis [11] = test: Herbicidal activity against Cyperus difformis assessed as phytotoxic activity ratings (0- no effect to 5-complete killing rating scale) at 12.2 g/a measured after 3 weeks post compound treatment under green house conditions; format: functional
Echinochloa oryzicola [12] = test: Herbicidal activity against Echinochloa oryzicola assessed as phytotoxic activity ratings (0- no effect to 5-complete killing rating scale) at 25 g/a measured after 3 weeks post compound treatment under green house conditions; format: functional
Cyperus serotinus [13] = test: Herbicidal activity against Cyperus serotinus assessed as phytotoxic activity ratings (0- no effect to 5-complete killing rating scale) at 50 g/a measured after 3 weeks post compound treatment under green house conditions; format: functional
Cyperus serotinus [14] = test: Herbicidal activity against Cyperus serotinus assessed as phytotoxic activity ratings (0- no effect to 5-complete killing rating scale) at 3.1 to 100 g/a measured after 3 weeks post compound treatment under green house conditions; format: functional
[15] = system: Schoenoplectiella juncoides; test: Herbicidal activity against Schoenoplectiella juncoides var. Hotarui Ohwi assessed as phytotoxic activity ratings (0- no effect to 5-complete killing rating scale) at 50 g/a measured after 3 weeks post compound treatment under green house conditions; format: functional
Cyperus serotinus [16] = test: Herbicidal activity against Cyperus serotinus assessed as phytotoxic activity ratings (0- no effect to 5-complete killing rating scale) at 12.2 g/a measured after 3 weeks post compound treatment under green house conditions; format: functional

Row | Structure (SMILES) | Activity (Oryza sativa [1]) [%] | Activity (Echinochloa oryzicola [2]) [%] | Activity (Oryza sativa [3]) [%] | Activity [4] [%] | Activity (Cyperus serotinus [5]) [%] | Activity (Cyperus difformis [6]) [%] | Activity (Echinochloa oryzicola [7]) [%] | Activity (Cyperus difformis [8]) [%] | Activity (Cyperus serotinus [9]) [%] | Activity [10] [%] | Activity (Cyperus difformis [11]) [%] | Activity (Echinochloa oryzicola [12]) [%] | Activity (Cyperus serotinus [13]) [%] | Activity (Cyperus serotinus [14]) | Activity [15] [%] | Activity (Cyperus serotinus [16]) [%]
1 | C[C@H](NC(=O)Nc1ccccc1F)c1ccccc1 | 40 | 80 | 0 | 0 | 0 | 10 |  |  |  |  |  |  |  |  |  | 
2 | CCc1ccccc1NC(=O)N[C@H](C)c1ccccc1 | 0 |  | 0 | 10 |  |  | 0 | 80 | 80 |  |  |  |  |  |  | 
3 | C[C@H](NC(=O)Nc1c(F)cccc1F)c1ccccc1 | 0 |  | 0 | 0 | 0 | 0 | 0 |  |  |  |  |  |  |  |  | 
4 | Cc1cccc(NC(=O)N[C@@H](C)c2ccccc2)c1 | 10 |  | 0 | 0 | 0 | 0 | 10 |  |  |  |  |  |  |  |  | 
5 | C[C@@H](NC(=O)Nc1ccccc1C(F)(F)F)c1ccccc1 | 10 |  | 0 |  |  |  | 40 |  | 80 | 80 | 80 |  |  |  |  | 
6 | CCc1ccccc1NC(=O)N[C@@H](C)c1ccccc1 | 0 |  | 0 | 10 | 0 | 40 | 0 |  |  |  |  |  |  |  |  | 
7 | C[C@H](NC(=O)Nc1ccccc1)c1ccccc1 | 10 |  | 0 | 0 | 0 | 0 |  |  |  |  |  | 80 |  |  |  | 
8 | Cc1ccccc1NC(=O)N[C@H](C)c1ccccc1 | 0 |  | 0 |  |  | 10 | 0 |  |  |  |  |  | 80 |  |  | 
9 | C[C@H](NC(=O)Nc1ccccc1C(C)(C)C)c1ccccc1 | 0 |  | 0 | 10 | 0 | 40 | 0 |  |  |  |  |  |  |  |  | 
10 | C[C@@H](NC(=O)Nc1c(F)cccc1F)c1ccccc1 |  |  | 0 | 40 | 40 | 40 | 40 |  |  |  |  |  |  |  |  | 
11 | C[C@H](NC(=O)Nc1cccc(C(F)(F)F)c1)c1ccccc1 | 0 |  | 0 | 0 | 0 | 10 | 10 |  |  |  |  |  |  |  |  | 
12 | Cc1cc(F)ccc1NC(=O)N[C@H](C)c1ccccc1 | 0 |  | 0 | 0 | 0 | 0 | 0 |  |  |  |  |  |  |  |  | 
13 | CCc1ccc(NC(=O)N[C@H](C)c2ccccc2)cc1 | 0 |  | 0 | 40 | 40 | 40 | 0 |  |  |  |  |  |  |  |  | 
14 | COc1cccc(NC(=O)N[C@H](C)c2ccccc2)c1 | 10 |  | 0 |  | 10 | 40 | 10 |  |  |  |  |  |  | 80% | 80 | 
15 | CCCc1ccc(NC(=O)N[C@H](C)c2ccccc2)cc1 | 10 | 80 | 0 | 40 | 0 | 40 |  |  |  |  |  |  |  |  |  | 
16 | COc1cccc(NC(=O)N[C@@H](C)c2ccccc2)c1 | 0 |  | 0 | 0 | 0 | 0 | 0 |  |  |  |  |  |  |  |  | 
17 | C[C@H](NC(=O)Nc1cc(F)ccc1F)c1ccccc1 | 10 |  | 0 | 0 |  | 0 |  |  |  |  |  | 80 |  | inactive |  | 
18 | C[C@@H](NC(=O)Nc1ccccc1)c1ccccc1 | 0 |  | 0 | 10 | 80 | 40 | 40 |  |  |  |  |  |  |  |  | 

Row | Structure (SMILES) | Activity (Oryza sativa [1]) [%] | Activity (Echinochloa oryzicola [2]) [%] | Activity (Oryza sativa [3]) [%] | Activity [4] [%] | Activity (Cyperus serotinus [5]) [%] | Activity (Cyperus difformis [6]) [%] | Activity (Echinochloa oryzicola [7]) [%] | Activity (Cyperus difformis [8]) [%] | Activity (Cyperus serotinus [9]) [%] | Activity [10] [%] | Activity (Cyperus difformis [11]) [%] | Activity (Echinochloa oryzicola [12]) [%] | Activity (Cyperus serotinus [13]) [%] | Activity (Cyperus serotinus [14]) | Activity [15] [%] | Activity (Cyperus serotinus [16]) [%]
19 | C[C@H](NC(=O)Nc1ccccc1C(F)(F)F)c1ccccc1 | 0 |  | 0 | 0 | 0 | 0 | 10 |  |  |  |  |  |  |  |  | 
20 | Cc1ccc(NC(=O)N[C@H](C)c2ccccc2)cc1 | 0 |  | 0 |  | 40 |  | 10 | 80 |  |  |  |  |  |  | 80 | 
21 | CCc1cccc(NC(=O)N[C@H](C)c2ccccc2)c1 | 0 |  | 0 | 40 | 40 |  | 40 |  |  |  | 80 |  |  |  |  | 
22 | Cc1ccccc1NC(=O)N[C@@H](C)c1ccccc1 | 0 |  | 0 | 0 | 0 | 0 | 0 |  |  |  |  |  |  |  |  | 
23 | CC(C)c1ccc(NC(=O)N[C@@H](C)c2ccccc2)cc1 | 0 |  | 0 | 0 | 0 | 0 | 0 |  |  |  |  |  |  | inactive |  | 
24 | CC(C)c1cccc(NC(=O)N[C@H](C)c2ccccc2)c1 | 0 |  | 0 | 40 |  |  | 0 | 80 |  |  |  |  |  |  |  | 80
25 | CCc1cccc(NC(=O)N[C@@H](C)c2ccccc2)c1 | 0 |  | 0 | 40 | 0 | 40 | 0 |  |  |  |  |  |  |  |  | 
26 | C[C@H](NC(=O)Nc1cccc(F)c1F)c1ccccc1 | 10 |  | 0 | 0 |  | 0 |  |  |  |  |  | 80 |  | inactive |  | 
27 | Cc1cccc(NC(=O)N[C@H](C)c2ccccc2)c1 | 10 |  | 0 | 80 | 80 | 80 | 40 |  |  |  |  |  |  |  |  | 
28 | Cc1ccc(NC(=O)N[C@@H](C)c2ccccc2)cc1 | 0 |  | 0 | 0 | 0 | 0 | 40 |  |  |  |  |  |  |  |  | 
29 | Cc1cc(F)ccc1NC(=O)N[C@@H](C)c1ccccc1 | 0 |  | 0 | 40 | 40 | 10 | 0 |  |  |  |  |  |  |  |  | 
30 | C[C@@H](NC(=O)Nc1cccc(C(F)(F)F)c1)c1ccccc1 | 10 |  | 0 |  | 0 | 40 | 10 |  |  |  |  |  |  |  | 80 | 
31 | CCc1ccc(NC(=O)N[C@@H](C)c2ccccc2)cc1 | 0 |  | 0 | 0 | 0 | 0 | 0 |  |  |  |  |  |  |  |  | 
32 | CC(C)c1ccccc1NC(=O)N[C@@H](C)c1ccccc1 | 0 |  | 0 | 0 | 0 | 0 | 0 |  |  |  |  |  |  |  |  | 
33 | C[C@H](NC(=O)Nc1cccc(I)c1)c1ccccc1 | 0 |  | 0 | 0 |  | 10 | 0 |  |  |  |  |  |  | inactive |  | 
34 | C[C@@H](NC(=O)Nc1ccccc1F)c1ccccc1 | 10 |  | 0 | 10 | 40 | 40 | 10 |  |  |  |  |  |  |  |  | 
35 | C[C@@H](NC(=O)Nc1cc(C(F)(F)F)ccc1F)c1ccccc1 | 10 |  | 0 | 0 |  | 0 | 80 |  |  |  |  |  |  | inactive |  | 
36 | COc1ccccc1NC(=O)N[C@H](C)c1ccccc1 | 0 |  | 0 | 0 |  | 0 | 0 |  |  |  |  |  |  | inactive |  | 
